Legend:
Assay in all cases: KINOMEscan
Format in all cases: binding
[1] = target: T1, JAK2(JH1domain-catalytic) (Homo sapiens, UniProt O60674)
T1 construct: JAK2(JH1domain-; purchased Eurofins DiscoverX, LLC; host or cells: E. coli (T7 phage) or HEK-293

FGFR2 = target: T2, FGFR2 (Homo sapiens, UniProt P21802)
T2 construct: purchased Eurofins DiscoverX, LLC; host or cells: E. coli (T7 phage) or HEK-293

PIK3CA = target: T3, PIK3CA (Homo sapiens, UniProt P42336)
T3 construct: purchased Eurofins DiscoverX, LLC; host or cells: E. coli BL21-derived host (T7 phage) or HEK-293
T3 sequence (P42336 whole entry): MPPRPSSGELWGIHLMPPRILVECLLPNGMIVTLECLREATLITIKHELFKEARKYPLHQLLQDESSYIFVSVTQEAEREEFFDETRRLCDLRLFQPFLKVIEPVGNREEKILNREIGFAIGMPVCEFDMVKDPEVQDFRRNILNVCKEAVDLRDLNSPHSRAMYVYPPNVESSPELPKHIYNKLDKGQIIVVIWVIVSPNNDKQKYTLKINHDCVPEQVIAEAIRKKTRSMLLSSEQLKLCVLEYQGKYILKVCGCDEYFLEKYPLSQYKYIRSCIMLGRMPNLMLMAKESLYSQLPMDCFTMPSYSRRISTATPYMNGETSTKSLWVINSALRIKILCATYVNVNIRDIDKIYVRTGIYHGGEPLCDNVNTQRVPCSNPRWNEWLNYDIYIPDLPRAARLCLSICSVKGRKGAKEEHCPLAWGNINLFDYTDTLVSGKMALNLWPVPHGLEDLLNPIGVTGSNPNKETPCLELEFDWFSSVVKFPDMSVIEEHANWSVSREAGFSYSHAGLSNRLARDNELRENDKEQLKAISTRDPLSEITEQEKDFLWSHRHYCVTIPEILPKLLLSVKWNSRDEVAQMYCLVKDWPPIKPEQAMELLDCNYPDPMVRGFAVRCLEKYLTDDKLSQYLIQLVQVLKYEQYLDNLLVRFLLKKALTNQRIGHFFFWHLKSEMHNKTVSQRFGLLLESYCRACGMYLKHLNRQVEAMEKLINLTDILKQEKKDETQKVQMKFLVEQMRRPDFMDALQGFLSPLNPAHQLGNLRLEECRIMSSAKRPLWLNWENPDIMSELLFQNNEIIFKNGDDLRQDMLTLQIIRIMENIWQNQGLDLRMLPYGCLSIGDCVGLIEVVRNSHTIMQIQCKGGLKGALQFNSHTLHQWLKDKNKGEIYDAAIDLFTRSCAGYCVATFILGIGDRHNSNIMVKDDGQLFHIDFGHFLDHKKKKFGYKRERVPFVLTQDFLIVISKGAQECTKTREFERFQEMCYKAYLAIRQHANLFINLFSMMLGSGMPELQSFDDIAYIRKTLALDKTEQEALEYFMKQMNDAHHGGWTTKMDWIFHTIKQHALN

KIT(V559D,T670I) = target: T4, KIT(V559D,T670I) (Homo sapiens, UniProt P10721, T670I/V559D)
T4 construct: purchased Eurofins DiscoverX, LLC; host or cells: E. coli (BL21-derived, T7 phage) or HEK-293

ACVR1B = target: T5, ACVR1B (Homo sapiens, UniProt P36896)
T5 construct: purchased Eurofins DiscoverX, LLC; host or cells: E. coli BL21-derived (T7 phage) or HEK-293
T5 sequence (P36896 24-505): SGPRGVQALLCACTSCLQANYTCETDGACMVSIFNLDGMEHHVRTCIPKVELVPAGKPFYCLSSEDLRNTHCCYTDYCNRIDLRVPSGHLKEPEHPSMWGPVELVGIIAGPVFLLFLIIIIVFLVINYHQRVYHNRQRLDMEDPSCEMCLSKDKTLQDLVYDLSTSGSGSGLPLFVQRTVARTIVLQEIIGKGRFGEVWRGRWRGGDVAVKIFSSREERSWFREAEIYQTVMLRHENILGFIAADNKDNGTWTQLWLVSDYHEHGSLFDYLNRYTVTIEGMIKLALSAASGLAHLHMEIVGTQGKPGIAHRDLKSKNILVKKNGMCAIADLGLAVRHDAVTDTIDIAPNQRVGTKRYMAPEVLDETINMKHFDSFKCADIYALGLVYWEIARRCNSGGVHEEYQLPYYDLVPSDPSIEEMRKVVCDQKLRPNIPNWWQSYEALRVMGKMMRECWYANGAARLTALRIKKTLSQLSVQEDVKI

VEGFR2 = target: T6, VEGFR2 (Homo sapiens, UniProt P35968)
T6 construct: purchased Eurofins DiscoverX, LLC; host or cells: E. coli BL21-derived host (T7 phage) or HEK-293
T6 sequence (P35968 20-1356): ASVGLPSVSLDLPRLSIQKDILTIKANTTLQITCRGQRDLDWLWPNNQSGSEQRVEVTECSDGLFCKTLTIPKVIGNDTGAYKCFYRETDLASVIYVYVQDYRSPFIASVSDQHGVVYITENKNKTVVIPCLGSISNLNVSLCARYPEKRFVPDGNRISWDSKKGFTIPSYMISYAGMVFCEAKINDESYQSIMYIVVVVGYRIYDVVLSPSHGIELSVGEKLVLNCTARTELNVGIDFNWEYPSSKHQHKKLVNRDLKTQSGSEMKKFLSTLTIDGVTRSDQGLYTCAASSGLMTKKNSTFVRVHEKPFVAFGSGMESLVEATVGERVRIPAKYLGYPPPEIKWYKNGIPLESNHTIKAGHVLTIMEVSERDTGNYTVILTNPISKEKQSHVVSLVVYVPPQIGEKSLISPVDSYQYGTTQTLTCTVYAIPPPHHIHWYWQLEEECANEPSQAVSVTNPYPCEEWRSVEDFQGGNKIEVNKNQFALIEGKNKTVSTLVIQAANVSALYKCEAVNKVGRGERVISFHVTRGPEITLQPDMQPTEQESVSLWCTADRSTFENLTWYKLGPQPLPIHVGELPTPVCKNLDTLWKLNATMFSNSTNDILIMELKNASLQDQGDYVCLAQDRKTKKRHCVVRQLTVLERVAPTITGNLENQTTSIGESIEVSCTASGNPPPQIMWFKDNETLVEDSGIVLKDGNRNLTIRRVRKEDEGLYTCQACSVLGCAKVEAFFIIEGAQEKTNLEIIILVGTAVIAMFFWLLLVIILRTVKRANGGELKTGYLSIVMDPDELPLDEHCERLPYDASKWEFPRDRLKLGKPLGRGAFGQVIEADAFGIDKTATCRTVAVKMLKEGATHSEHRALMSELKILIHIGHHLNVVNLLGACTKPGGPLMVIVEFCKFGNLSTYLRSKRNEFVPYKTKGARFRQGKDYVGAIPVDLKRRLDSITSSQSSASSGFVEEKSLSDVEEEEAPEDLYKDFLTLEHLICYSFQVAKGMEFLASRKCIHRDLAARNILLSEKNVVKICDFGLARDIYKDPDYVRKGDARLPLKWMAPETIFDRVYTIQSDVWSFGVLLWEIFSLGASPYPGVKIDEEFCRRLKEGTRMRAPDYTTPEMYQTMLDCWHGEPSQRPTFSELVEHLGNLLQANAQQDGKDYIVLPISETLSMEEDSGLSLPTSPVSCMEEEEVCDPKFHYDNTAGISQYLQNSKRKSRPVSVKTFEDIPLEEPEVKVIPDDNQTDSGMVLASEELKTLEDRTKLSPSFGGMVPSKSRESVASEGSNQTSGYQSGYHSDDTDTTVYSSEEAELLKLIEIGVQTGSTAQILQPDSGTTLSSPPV

[2] = target: T7, JAK3(JH1domain-catalytic) (Homo sapiens, UniProt P52333)
T7 construct: JAK3(JH1domain-; purchased Eurofins DiscoverX, LLC; host or cells: E. coli (T7 phage) or HEK-293
T7 sequence (P52333 822-1111 limits assumed): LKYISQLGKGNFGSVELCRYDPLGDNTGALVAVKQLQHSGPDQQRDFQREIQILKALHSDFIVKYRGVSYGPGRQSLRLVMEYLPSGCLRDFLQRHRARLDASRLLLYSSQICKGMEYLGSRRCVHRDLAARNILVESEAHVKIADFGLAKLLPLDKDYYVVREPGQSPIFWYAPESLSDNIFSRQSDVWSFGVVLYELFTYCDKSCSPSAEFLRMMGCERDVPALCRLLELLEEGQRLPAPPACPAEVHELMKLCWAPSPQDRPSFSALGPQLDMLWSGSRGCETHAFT

AKT1 = target: T8, AKT1 (Homo sapiens, UniProt P31749)
T8 construct: purchased Eurofins DiscoverX, LLC; host or cells: E. coli BL21-derived (T7 phage) or HEK-293

MKNK1 = target: T9, MKNK1 (Homo sapiens, UniProt Q9BUB5)
T9 construct: purchased Eurofins DiscoverX, LLC; host or cells: E. coli (BL21-derived, T7 phage) or HEK-293
T9 sequence (Q9BUB5 whole entry): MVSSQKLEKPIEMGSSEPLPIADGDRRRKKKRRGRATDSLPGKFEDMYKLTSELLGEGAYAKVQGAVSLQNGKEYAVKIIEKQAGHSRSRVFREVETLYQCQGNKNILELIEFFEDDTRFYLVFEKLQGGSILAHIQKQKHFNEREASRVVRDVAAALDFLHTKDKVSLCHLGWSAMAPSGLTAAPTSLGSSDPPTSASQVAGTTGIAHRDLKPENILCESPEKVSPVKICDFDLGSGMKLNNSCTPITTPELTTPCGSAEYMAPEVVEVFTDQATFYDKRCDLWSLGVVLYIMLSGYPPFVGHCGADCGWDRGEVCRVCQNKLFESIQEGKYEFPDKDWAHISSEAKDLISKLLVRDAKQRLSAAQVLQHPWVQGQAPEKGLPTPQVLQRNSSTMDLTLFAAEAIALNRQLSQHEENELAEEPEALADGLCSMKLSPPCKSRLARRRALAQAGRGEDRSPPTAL

PIM1 = target: T10, PIM1 (Homo sapiens, UniProt P11309)
T10 construct: purchased Eurofins DiscoverX, LLC; host or cells: E. coli BL21-derived host (T7 phage) or HEK-293
T10 sequence (P11309 whole entry): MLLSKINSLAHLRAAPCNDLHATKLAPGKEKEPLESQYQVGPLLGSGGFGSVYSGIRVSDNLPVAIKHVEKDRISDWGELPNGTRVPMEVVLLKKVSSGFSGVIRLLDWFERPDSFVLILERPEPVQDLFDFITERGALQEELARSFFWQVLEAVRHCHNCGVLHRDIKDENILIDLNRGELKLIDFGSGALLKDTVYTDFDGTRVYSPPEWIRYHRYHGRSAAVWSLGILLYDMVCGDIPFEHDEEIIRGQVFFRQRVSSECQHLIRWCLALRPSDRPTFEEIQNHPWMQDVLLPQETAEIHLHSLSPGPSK

CSNK1G2 = target: T11, CSNK1G2 (Homo sapiens, UniProt P78368)
T11 construct: purchased Eurofins DiscoverX, LLC; host or cells: E. coli (T7 phage) or HEK-293

ERBB4 = target: T12, ERBB4 (Homo sapiens, UniProt Q15303)
T12 construct: purchased Eurofins DiscoverX, LLC; host or cells: E. coli (T7 phage) or HEK-293
T12 sequence (Q15303 26-1308): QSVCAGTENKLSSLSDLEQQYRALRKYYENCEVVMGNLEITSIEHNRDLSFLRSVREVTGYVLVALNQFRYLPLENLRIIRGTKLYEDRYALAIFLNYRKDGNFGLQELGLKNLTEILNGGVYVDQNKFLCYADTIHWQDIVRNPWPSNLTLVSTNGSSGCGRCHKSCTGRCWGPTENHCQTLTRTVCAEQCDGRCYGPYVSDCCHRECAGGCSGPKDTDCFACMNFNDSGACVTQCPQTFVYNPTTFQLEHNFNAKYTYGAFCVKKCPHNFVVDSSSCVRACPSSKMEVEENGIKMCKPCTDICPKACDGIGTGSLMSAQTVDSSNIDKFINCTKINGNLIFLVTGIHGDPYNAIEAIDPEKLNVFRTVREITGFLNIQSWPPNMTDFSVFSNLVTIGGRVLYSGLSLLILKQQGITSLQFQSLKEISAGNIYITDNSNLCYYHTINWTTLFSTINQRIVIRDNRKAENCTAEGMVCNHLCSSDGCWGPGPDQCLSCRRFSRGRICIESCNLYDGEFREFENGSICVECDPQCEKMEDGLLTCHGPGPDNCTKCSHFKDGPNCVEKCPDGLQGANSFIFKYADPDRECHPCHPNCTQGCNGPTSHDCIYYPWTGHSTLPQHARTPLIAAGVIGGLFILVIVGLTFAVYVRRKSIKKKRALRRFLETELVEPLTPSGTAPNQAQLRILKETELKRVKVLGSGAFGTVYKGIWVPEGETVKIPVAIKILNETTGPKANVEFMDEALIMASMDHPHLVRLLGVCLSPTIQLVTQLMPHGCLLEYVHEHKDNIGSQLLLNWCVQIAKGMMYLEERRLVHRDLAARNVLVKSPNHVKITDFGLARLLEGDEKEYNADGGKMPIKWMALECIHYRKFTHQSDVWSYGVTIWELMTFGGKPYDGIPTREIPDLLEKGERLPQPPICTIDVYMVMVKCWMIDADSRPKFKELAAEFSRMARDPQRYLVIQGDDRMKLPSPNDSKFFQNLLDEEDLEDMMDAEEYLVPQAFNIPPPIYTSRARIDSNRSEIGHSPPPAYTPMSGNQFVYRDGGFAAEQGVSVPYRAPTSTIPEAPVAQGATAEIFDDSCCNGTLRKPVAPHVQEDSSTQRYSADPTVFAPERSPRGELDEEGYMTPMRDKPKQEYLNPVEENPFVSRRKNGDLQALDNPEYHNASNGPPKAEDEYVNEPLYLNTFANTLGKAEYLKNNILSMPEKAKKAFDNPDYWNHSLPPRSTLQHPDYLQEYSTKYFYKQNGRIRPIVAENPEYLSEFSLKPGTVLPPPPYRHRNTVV

TGFBR1 = target: T13, TGFBR1 (Homo sapiens, UniProt P36897)
T13 construct: purchased Eurofins DiscoverX, LLC; host or cells: E. coli BL21-derived host (T7 phage) or HEK-293
T13 sequence (P36897 34-503): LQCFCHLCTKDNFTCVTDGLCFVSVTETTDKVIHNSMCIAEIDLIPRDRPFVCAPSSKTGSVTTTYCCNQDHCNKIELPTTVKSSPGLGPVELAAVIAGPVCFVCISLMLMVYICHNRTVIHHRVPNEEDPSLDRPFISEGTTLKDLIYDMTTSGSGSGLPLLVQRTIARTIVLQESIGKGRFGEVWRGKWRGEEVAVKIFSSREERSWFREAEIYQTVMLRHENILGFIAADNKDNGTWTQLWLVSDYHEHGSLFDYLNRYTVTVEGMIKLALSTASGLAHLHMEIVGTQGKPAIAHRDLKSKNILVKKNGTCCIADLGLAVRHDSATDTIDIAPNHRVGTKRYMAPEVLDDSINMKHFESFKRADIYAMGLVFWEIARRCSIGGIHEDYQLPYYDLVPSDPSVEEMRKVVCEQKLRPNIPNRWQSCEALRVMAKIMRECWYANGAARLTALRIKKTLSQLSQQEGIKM

T1 sequence (O60674 849-1124 limits assumed): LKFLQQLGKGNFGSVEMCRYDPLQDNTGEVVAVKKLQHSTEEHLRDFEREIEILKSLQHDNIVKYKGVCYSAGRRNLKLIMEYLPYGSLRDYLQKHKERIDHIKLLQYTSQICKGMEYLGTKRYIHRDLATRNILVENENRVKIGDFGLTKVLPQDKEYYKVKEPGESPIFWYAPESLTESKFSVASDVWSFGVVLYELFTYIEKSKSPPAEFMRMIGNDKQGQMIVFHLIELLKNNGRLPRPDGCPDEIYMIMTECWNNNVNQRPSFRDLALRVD

Compound | RA @ 1000nM [1] [%] | RA @ 10000nM [1] [%] | RA @ 1000nM (FGFR2) [%] | RA @ 10000nM (FGFR2) [%] | RA @ 1000nM (PIK3CA) [%] | RA @ 10000nM (PIK3CA) [%] | RA @ 1000nM (KIT(V559D,T670I)) [%] | RA @ 10000nM (KIT(V559D,T670I)) [%] | RA @ 1000nM (ACVR1B) [%] | RA @ 10000nM (ACVR1B) [%] | RA @ 1000nM (VEGFR2) [%] | RA @ 10000nM (VEGFR2) [%] | RA @ 1000nM [2] [%] | RA @ 10000nM [2] [%] | RA @ 1000nM (AKT1) [%] | RA @ 10000nM (AKT1) [%] | RA @ 1000nM (MKNK1) [%] | RA @ 10000nM (MKNK1) [%] | RA @ 1000nM (PIM1) [%] | RA @ 10000nM (PIM1) [%] | other results
CC(C)Cn1ncc2cc(Cc3ccc(F)cc3F)c(C(=O)NCCN(C)C)cc21 [Compound 94, 5-(2,4-Difluorobenzyl)-N-(2-(dimethylamino)ethyl)-1-isobutyl-1H-indazole-6-carboxamide] | 98 | 100 | 95 | 100 | 77 | 95 | 100 | 100 | 100 | 100 | 100 | 100 | 100 | 100 | 100 | 75 | 100 | 100 | 95 | 100 | RA @ 1000nM (CSNK1G2): 96%; RA @ 10000nM (CSNK1G2): 93%; RA @ 1000nM (ERBB4): 85%; RA @ 10000nM (ERBB4): 83%; RA @ 1000nM (TGFBR1): 100%; RA @ 10000nM (TGFBR1): 100%
CN(C)CCNC(=O)c1cc2c(cnn2CC2CCCCC2)cc1Cc1ccc(F)cc1F [Compound 95, 1-(Cyclohexylmethyl)-5-(2,4-difluorobenzyl)-N-(2-(dimethylamino)ethyl)-1H-indazole-6-carboxamide] | 100 | 100 | 100 | 100 | 100 | 100 | 47 | 94 | 100 | 100 | 100 | 100 | 100 | 100 | 100 | 100 | 100 | 100 | 100 | 94 | RA @ 1000nM (CSNK1G2): 100%; RA @ 10000nM (CSNK1G2): 98%; RA @ 1000nM (ERBB4): 93%; RA @ 10000nM (ERBB4): 81%; RA @ 1000nM (TGFBR1): 100%; RA @ 10000nM (TGFBR1): 100%

— publication PMC12406203 (Journal of Medicinal Chemistry, 2025)
